Experimental data reported in US20090163515A1, “Compounds Which Bind to the Active Site of Protein Kinase Enzymes” (Biofocus Discovery Ltd., priority 2003, published 2009).

Tested on: ROK
Experiment: ROK activity assay
Assay type: biochemical
Design: key: +: active; ++: more active; +++: very active
Settings: assays conducted at 1-100 μM

Structure (SMILES) | ROK activity
Oc1ccc(-c2cncc(NCc3ccc4ccccc4c3)c2)cc1 [4-{5-[(Naphthalen-2-ylmethyl)-amino]-pyridin-3-yl}-phenol] | +
Oc1ccc(-c2cncc(NCC3CCCN3)c2)cc1 (stereo not drawn) [4-{5-[(Pyrrolidin-2-ylmethyl)-amino]-pyridin-3-yl}-phenol] | ++
COc1ccc(CNc2cncc(-c3ccc(O)cc3)c2)cc1O [5-{[5-(4-Hydroxy-phenyl)-pyridin-3-ylamino]-methyl}-2-methoxy-phenol] | ++
Oc1ccc(-c2cncc(NCc3cc(O)cc(O)c3)c2)cc1 [5-{[5-(4-Hydroxy-phenyl)-pyridin-3-ylamino]-methyl}-benzene-1,3-diol] | ++
c1ccc2ncc(-c3cnc(NCCc4ccncc4)cn3)cc2c1 [(2-Pyridin-4-yl-ethyl)-(5-quinolin-3-yl-pyrazin-2-yl)-amine] | ++
COc1cc(-c2cnc(NCCc3ccncc3)cn2)cc(OC)c1OC [(2-Pyridin-4-yl-ethyl)-[5-(3,4,5-trimethoxy-phenyl)-pyrazin-2-yl]-amine] | ++
FC(F)(F)Oc1cccc(-c2cnc(NCCc3ccncc3)cn2)c1 [(2-Pyridin-4-yl-ethyl)-[5-(3-trifluoromethoxy-phenyl)-pyrazin-2-yl]-amine] | ++
FC(F)(F)Oc1ccc(-c2cnc(NCCc3ccncc3)cn2)cc1 [(2-Pyridin-4-yl-ethyl)-[5-(4-trifluoromethoxy-phenyl)-pyrazin-2-yl]-amine] | ++
Clc1cccc(CNc2cnc(-c3ccncc3)cn2)c1 [(3-Chloro-benzyl)-(5-pyridin-4-yl-pyrazin-2-yl)-amine] | ++
COc1ccc(CNc2cnc(-c3ccncc3)cn2)cc1 [(4-Methoxy-benzyl)-(5-pyridin-4-yl-pyrazin-2-yl)-amine] | +
Oc1cccc(CNc2cncc(-c3cccc(O)c3)c2)c1 [(5-(3′-hydroxy-phenyl)-pyridin-3-yl)-(3-hydroxy-benzyl)-amine] | +
Oc1ccc(-c2cncc(NCc3cccc(O)c3)c2)cc1 [(5-(4′-hydroxy-phenyl)-pyridin-3-yl)-(3-hydroxy-benzyl)-amine] | +++
c1cc(CCNc2cnc(-c3ccc4c(c3)OCO4)cn2)ccn1 [(5-Benzo[1,3]dioxol-5-yl-pyrazin-2-yl)-(2-pyridin-4-yl-ethyl)-amine] | ++
c1ccc2sc(-c3cnc(NCCc4ccncc4)cn3)cc2c1 [(5-Benzo[b]thiophen-2-yl-pyrazin-2-yl)-(2-pyridin-4-yl-ethyl)-amine] | ++
c1ccc2oc(-c3cnc(NCCc4ccncc4)cn3)cc2c1 [(5-Benzofuran-2-yl-pyrazin-2-yl)-(2-pyridin-4-yl-ethyl)-amine] | ++
c1cncc(CCNc2cnc(-c3ccc4ccccc4c3)cn2)c1 [(5-Naphthalen-2-yl-pyrazin-2-yl)-(2-pyridin-3-yl-ethyl)-amine] | +
c1ccc2cc(-c3cnc(NCCc4ccncc4)cn3)ccc2c1 [(5-Naphthalen-2-yl-pyrazin-2-yl)-(2-pyridin-4-yl-ethyl)-amine] | ++
c1csc(CNc2cnc(-c3ccncc3)cn2)c1 [(5-Pyridin-4-yl-pyrazin-2-yl)-thiophen-2-ylmethyl-amine] | ++
c1cc(-c2cnc(NCc3ccc4c(c3)OCO4)cn2)ccn1 [Benzo[1,3]dioxol-5-ylmethyl-(5-pyridin-4-yl-pyrazin-2-yl)-amine] | ++
c1cc(-c2cncc(NCc3ccc4c(c3)OCO4)c2)ccn1 [Benzo[1,3]dioxol-5-ylmethyl-[3,4′]bipyridinyl-5-yl-amine] | ++
CN(C)CCNC(=O)c1cccc(-c2cncc(Nc3ccc4ccccc4c3)c2)c1 [N-(2-Dimethylamino-ethyl)-3-[5-(naphthalen-2-ylamino)-pyridin-3-yl]-benzamide] | +
O=C(NCCO)c1cccc(-c2cnc(NCCc3ccncc3)cn2)c1 [N-(2-Hydroxy-ethyl)-3-[5-(2-pyridin-4-yl-ethylamino)-pyrazin-2-yl]-benzamide] | +
COc1ccc(NC(=O)c2ccc(-c3cnc(NCCc4ccncc4)cn3)cc2)cc1 [N-(4-Methoxy-phenyl)-4-[5-(2-pyridin-4-yl-ethylamino)-pyrazin-2-yl]-benzamide] | ++

Structure (SMILES) | ROK activity
CC(=O)Nc1cccc(-c2cncc(NCc3cccc(O)c3)c2)c1 [N-{3-[5-(3-Hydroxy-benzylamino)-pyridin-3-yl]-phenyl}-acetamide] | +
CC(=O)Nc1ccc(-c2cncc(NCc3cccc(O)c3)c2)cc1 [N-{4-[5-(3-Hydroxy-benzylamino)-pyridin-3-yl]-phenyl}-acetamide] | +
Clc1ccc(CNc2cncc(-c3ccncc3)c2)cc1Cl [[3,4′]Bipyridinyl-5-yl-(3,4-dichloro-benzyl)-amine] | ++
Fc1ccc(CNc2cncc(-c3ccncc3)c2)cc1F [[3,4′]Bipyridinyl-5-yl-(3,4-difluoro-benzyl)-amine] | ++
Brc1cccc(Nc2cncc(-c3ccncc3)c2)c1 [[3,4′]Bipyridinyl-5-yl-(3-bromo-phenyl)-amine] | ++
Clc1cccc(CNc2cncc(-c3ccncc3)c2)c1 [[3,4′]Bipyridinyl-5-yl-(3-chloro-benzyl)-amine] | ++
Clc1cccc(Nc2cncc(-c3ccncc3)c2)c1 [[3,4′]Bipyridinyl-5-yl-(3-chloro-phenyl)-amine] | ++
O=[N+]([O-])c1cccc(Nc2cncc(-c3ccncc3)c2)c1 [[3,4′]Bipyridinyl-5-yl-(3-nitro-phenyl)-amine] | ++
FC(F)(F)Oc1cccc(CNc2cncc(-c3ccncc3)c2)c1 [[3,4′]Bipyridinyl-5-yl-(3-trifluoromethoxy-benzyl)-amine] | ++
Brc1ccc(CNc2cncc(-c3ccncc3)c2)cc1 [[3,4′]Bipyridinyl-5-yl-(4-bromo-benzyl)-amine] | +++
Fc1cc(CNc2cncc(-c3ccncc3)c2)ccc1Cl [[3,4′]Bipyridinyl-5-yl-(4-chloro-3-fluoro-benzyl)-amine] | +++
Clc1ccc(CNc2cncc(-c3ccncc3)c2)cc1 [[3,4′]Bipyridinyl-5-yl-(4-chloro-benzyl)-amine] | +++
COc1ccc(CNc2cncc(-c3ccncc3)c2)cc1 [[3,4′]Bipyridinyl-5-yl-(4-methoxy-benzyl)-amine] | +++
c1cc(-c2cncc(NCC3CCCCC3)c2)ccn1 [[3,4′]Bipyridinyl-5-yl-cyclohexylmethyl-amine] | ++
c1cc(-c2cncc(NCc3ccoc3)c2)ccn1 [[3,4′]Bipyridinyl-5-yl-furan-3-ylmethyl-amine] | ++
c1ccc2cc(CNc3cncc(-c4ccncc4)c3)ccc2c1 [[3,4′]Bipyridinyl-5-yl-naphthalen-2-ylmethyl-amine] | ++
c1cc(-c2cncc(NCC3CCCN3)c2)ccn1 (stereo not drawn) [[3,4′]Bipyridinyl-5-yl-pyrrolidin-2-ylmethyl-amine] | +
COc1ccc(-c2cnc(NCCc3ccncc3)cn2)cc1OC [[5-(3,4-Dimethoxy-phenyl)-pyrazin-2-yl]-(2-pyridin-4-yl-ethyl)-amine] | ++
Fc1ccc(-c2cnc(NCCc3ccncc3)cn2)cc1Cl [[5-(3-Chloro-4-fluoro-phenyl)-pyrazin-2-yl]-(2-pyridin-4-yl-ethyl)-amine] | +
COc1ccc(-c2cnc(NCCc3ccncc3)cn2)cc1 [[5-(4-Methoxy-phenyl)-pyrazin-2-yl]-(2-pyridin-4-yl-ethyl)-amine] | ++
CSc1ccc(-c2cnc(NCCc3ccncc3)cn2)cc1 [[5-(4-Methylsulfanyl-phenyl)-pyrazin-2-yl]-(2-pyridin-4-yl-ethyl)-amine] | ++
OCc1ccc(-c2cnc(NCCc3ccncc3)cn2)cc1 [{4-[5-(2-Pyridin-4-yl-ethylamino)-pyrazin-2-yl]-phenyl}-methanol] | +
